{
  "source": "patent US5494804A",
  "about": "“Differential determination process of α-amylase isoenzyme activities” (Kikkoman Corporation, priority 1993, dated 1996)",
  "key": {"human S-type α-amylase [1]": {"target": "T1, human S-type α-amylase (Homo sapiens, UniProt P0DUB6)", "T1 construct": "purchased International Reagents Corp., Japan CARIBZYME AMY", "T1 sequence (P0DUB6 16-511)": "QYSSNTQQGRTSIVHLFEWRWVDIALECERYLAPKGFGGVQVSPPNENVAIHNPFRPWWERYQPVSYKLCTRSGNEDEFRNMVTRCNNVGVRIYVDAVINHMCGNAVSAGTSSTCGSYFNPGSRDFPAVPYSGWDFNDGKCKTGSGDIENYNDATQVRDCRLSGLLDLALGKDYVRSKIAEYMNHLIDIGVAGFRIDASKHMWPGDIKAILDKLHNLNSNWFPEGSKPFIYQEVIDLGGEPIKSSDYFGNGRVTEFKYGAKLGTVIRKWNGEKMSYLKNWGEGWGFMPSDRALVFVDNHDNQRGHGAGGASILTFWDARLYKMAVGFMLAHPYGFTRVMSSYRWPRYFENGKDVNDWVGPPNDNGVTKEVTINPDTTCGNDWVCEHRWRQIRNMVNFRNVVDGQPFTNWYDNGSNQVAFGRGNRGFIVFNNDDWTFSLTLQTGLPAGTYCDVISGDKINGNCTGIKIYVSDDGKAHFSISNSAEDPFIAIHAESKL", "assay": "Km and reaction rate constant ks of the substrate for measuring α-amylase activity, S-type", "format": "biochemical", "protocol": "(§1) In a 50 mM phosphate buffer (pH 7.0) containing 40 mM NaCl and 2 mM MgCl2 was dissolved N3G5-CNP obtained in Informative Example 1 to prepare substrate solutions for measuring α-amylase activity in a concentration of 0.16, 0.32, 0.48, 0.64, 0.80 and 0.96 mM.\n(§2) A commercially available glucoamylase derived from Rhizopus sp. and β-glucosidase derived from almond were mixed and dissolved in a 50 mM phosphate buffer (pH 7.0) containing 40 mM NaCl and 2 mM MgCl2 to the concentration of the glucoamylase and β-glucosidase being 163 units/ml and 16.3 units/ml, respectively. In this connection, these commercially available glucoamylase and β-glucosidase used were manufactured by Toyobo Co., Ltd.\n(§3) Each of commercially available human P-type α-amylase and human S-type α-amylase was dissolved in distilled water to ensure that the concentration of each amylase was about 150 IU/liter.\nThe commercially available human α-amylases used were CARIBZYME AMY manufactured by International Reagents Corp., Japan.\nThe molecular extinction coefficient (ε) of 2-chloro-4-nitrophenol is defined 16,100 and for α-amylase activity the amount of enzyme which decomposes 1 μmol of G5-CNP at 37° C. for a minute is defined as 1 International Unit (IU) (and so forth).\n(§4) As for the human P-type α-amylase solution and human S-type α-amylase solution, 1.0 ml of a coupled enzyme solution was added to and stirred with 250 μl of the α-amylase solution, warmed to 37° C. for 1 minute, and 2.0 ml of each concentration of the N3G5-CNP solution was added and stirred, warmed to 37° C. for 2.5 minutes to measure the variable absorbances at 400 nm for 2 minutes. […]\nFor six solutions of each of the human P-type α-amylase and the human S-type α-amylase, 1.0 ml of the coupled enzyme solution was added to and stirred with 250 μl of the α-amylase solution and warmed to 37° C. for 1 minute, respectively. 2.0 ml of N3G5-CNP solution was added and stirred, and the mixture was warmed to 37° C. for 2.5 minutes to measure the variable absorbances at 400 nm for 2 minutes. […]"}, "human P-type α-amylase [2]": {"target": "T2, human P-type α-amylase (Homo sapiens, UniProt P04746)", "T2 construct": "purchased International Reagents Corp., Japan CARIBZYME AMY", "T2 sequence (P04746 16-511)": "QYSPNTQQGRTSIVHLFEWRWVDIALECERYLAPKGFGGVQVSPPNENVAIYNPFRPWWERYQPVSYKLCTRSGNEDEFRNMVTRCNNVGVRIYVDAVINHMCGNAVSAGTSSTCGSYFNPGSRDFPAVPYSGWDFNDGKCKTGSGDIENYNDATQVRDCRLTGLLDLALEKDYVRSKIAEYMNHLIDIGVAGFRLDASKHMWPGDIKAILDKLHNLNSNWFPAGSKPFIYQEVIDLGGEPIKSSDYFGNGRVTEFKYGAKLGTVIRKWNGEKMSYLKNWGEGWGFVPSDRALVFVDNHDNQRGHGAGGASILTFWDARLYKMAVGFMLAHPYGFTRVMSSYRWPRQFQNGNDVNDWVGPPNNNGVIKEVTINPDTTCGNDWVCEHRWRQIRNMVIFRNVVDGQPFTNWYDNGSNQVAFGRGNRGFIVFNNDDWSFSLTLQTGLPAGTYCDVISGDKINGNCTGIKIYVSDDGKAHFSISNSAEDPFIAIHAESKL", "assay": "Km and reaction rate constant kp of the substrate for measuring α-amylase activity, P-type", "format": "biochemical", "protocol": "as §1, §2, §3\nThe commercially available human α-amylases used were CARIBZYME AMY manufactured by International Reagents Corp., Japan. […]\nas §4"}, "α-amylase": {"tested_on": "α-amylase", "assay": "Km value of G5-CNP (isoenzyme not stated)", "format": "biochemical, human", "settings": "α-glucosidase instead of glucoamylase as coupled enzyme", "protocol": "As for the human P-type α-amylase solution and human S-type α-amylase solution, 1.0 ml of a coupled enzyme solution was added to and stirred with 250 μl of the α-amylase solution, warmed to 37° C. for 1 minute, and 2.0 ml of each concentration of the N3G5-CNP solution was added and stirred, warmed to 37° C. for 2.5 minutes to measure the variable absorbances at 400 nm for 2 minutes. At the same time, a blank test was carried out with 250 μl of distilled water instead of the α-amylase solution. The measurements thus obtained were plotted by the Lineweaver-Burk method to calculate the Km value by the method of least squares.\nThe Km value and the reaction rate constants (kp and ks) of G5-CNP and the inhibition constants a and b of DOG3 were measured in the same manner as in Example 1 except that a commercially available G5-CNP [manufactured by Daiichi Pure Chemicals Co., Ltd.] on behalf of N3G5-CNP as the substrate for measuring α-amylase was used and 406 units/liter of α-glucosidase [manufactured by Toyobo Co., Ltd.] was used on behalf of glucoamylase as a coupled enzyme."}, "human P-type α-amylase [3]": {"target": "T2, human P-type α-amylase", "assay": "Inhibition of human P-type α-amylase by an inhibitor (variable absorbance at 400 nm, chromogenic substrate, coupled enzymes)", "format": "biochemical", "protocol": "(§5) (a) Preparation of a mixed solution of the substrate (N3G5-CNP) and the inhibitor DOG3\n(§6) N3G5-CNP and DOG3 obtained in Informative Example 2 were dissolved in a 50 mM phosphate buffer (pH 7.0) containing 40 mM NaCl and 2 mM MgCl2 so that the N3G5-CNP has a concentration of 3.25 mM (final concentration of 2.0 mM) and DOG3 has seven concentrations of 0.05, 0.11, 0.54, 1.09, 2.16, 3.25, 5.41 mM (final concentrations of 0.03, 0.07, 0.33, 0.67, 1.33, 2.00 and 3.33 mM, respectively).\n(§7) The commercially available human P-type α-amylase and human S-type α-amylase were dissolved in distilled water so that they have a concentration of about 150 IU/liter.\n(§8) It was prepared in the same manner as described in (b) in the section (1).\n(§9) After 250 μl of the α-amylase solution was admixed with 1.0 ml of the coupled enzyme solution and warmed to 37° C. for 1 minute, 2.0 ml of each of the mixtures (having 7 concentration) of the substrate (N3G5-CNP) and the inhibitor DOG3 was added, stirred and warmed to 37° C. for 2.5 minutes, and the variable absorbance in each sample at 400 nm was measured for 2 minutes.\n(§10) The activities of human P-type α-amylase and human S-type α-amylase containing 0 mM of DOG3 (without DOG3) were regarded as 100% and the relative activities of human P-type α-amylase and human S-type α-amylase in different concentrations of DOG3 were obtained from each determined value as mentioned above. In this connection, a open circle means P-type α-amylase and a closed circle means S-type α-amylase. […]\n(§11) On the other hand, procedures were carried out in the same manner as described above except that 1.0 ml of the coupled enzyme solution alone was used on behalf of the mixed solution in (c) to obtain the value of T with this method.\n(§12) The values of kp, ks, a and b in the wheat-germ inhibitor method were 1.1×10^-3, 1.1×10^-3, 0,262 and 0.726 as a result of the measurement. These values as well as those of T and W obtained in this method were substituted for the equations (3) and (4) to obtain the values of P and S (IU/liter). […]"}, "human S-type α-amylase [4]": {"target": "T1, human S-type α-amylase", "assay": "Inhibition of human S-type α-amylase by an inhibitor (variable absorbance at 400 nm, chromogenic substrate, coupled enzymes)", "format": "biochemical", "protocol": "as §5, §6, §7, §8, §9, §10, §11, §12"}, "[5]": {"settings": "substrate final concentration 2.0 mM, 37° C., inclination of absorbance versus activity line, glucoamylase and β-glucosidase"}, "[6]": {"settings": "α-glucosidase instead of glucoamylase as coupled enzyme"}},
  "data": [
    {"smiles": "[N-]=[N+]=NC[C@H]1O[C@H](O[C@H]2[C@H](O)[C@@H](O)[C@@H](O[C@H]3[C@H](O)[C@@H](O)[C@@H](O[C@H]4[C@H](O)[C@@H](O)[C@@H](O[C@H]5[C@H](O)[C@@H](O)[C@H](Oc6ccc([N+](=O)[O-])cc6Cl)O[C@@H]5CO)O[C@@H]4CO)O[C@@H]3CO)O[C@@H]2CO)[C@H](O)[C@@H](O)[C@@H]1O", "note": "[N3G5-CNP, 2-chloro-4-nitro-phenyl 6^5-azido-6^5-deoxy-β-D-maltopentaoside]", "values": [
      {"measurement": "Km", "setting": "human S-type α-amylase [1]; Lineweaver-Burk, 37° C., pH 7.0, glucoamylase and β-glucosidase as coupled enzymes", "result": 270, "unit": "µM"},
      {"measurement": "reaction rate constant ks", "setting": "human S-type α-amylase [1]; [5]", "result": "1.1×10^-3"},
      {"measurement": "reaction rate constant kp", "setting": "human P-type α-amylase [2]; [5]", "result": "1.1×10^-3"}
    ]},
    {"smiles": "O=[N+]([O-])c1ccc(O[C@@H]2O[C@H](CO)[C@@H](O[C@H]3O[C@H](CO)[C@@H](O[C@H]4O[C@H](CO)[C@@H](O[C@H]5O[C@H](CO)[C@@H](O[C@H]6O[C@H](CO)[C@@H](O)[C@H](O)[C@H]6O)[C@H](O)[C@H]5O)[C@H](O)[C@H]4O)[C@H](O)[C@H]3O)[C@H](O)[C@H]2O)c(Cl)c1", "note": "[G5-CNP, 2-chloro-4-nitrophenyl β-D-maltopentaoside, reference compound]", "values": [
      {"measurement": "reaction rate constant ks", "setting": "human S-type α-amylase [1]; [6]", "result": "1.2×10^-3"},
      {"measurement": "Km", "setting": "α-amylase", "result": 450, "unit": "µM"},
      {"measurement": "reaction rate constant kp", "setting": "human P-type α-amylase [2]; [6]", "result": "1.2×10^-3"}
    ]},
    {"smiles": "C[C@H]1O[C@H](O[C@H]2[C@H](O)[C@@H](O)[C@@H](O[C@H]3[C@H](O)[C@@H](O)C(O)O[C@@H]3CO)O[C@@H]2CO)[C@H](O)[C@@H](O)[C@@H]1O", "note": "(stereo partly drawn) [DOG3, O-6-deoxy-α-D-glucopyranosyl-(1→4)-O-α-D-glucopyranosyl-(1→4)-D-glucose]", "values": [
      {"measurement": "activity at 330 µM", "setting": "human P-type α-amylase [3]; DOG3 0.33 mM final, substrate N3G5-CNP 2.0 mM final, 37° C., pH 7.0, read-out: relative activity of human P-type α-amylase (without DOG3 = 100%)", "result": 13.1, "unit": "%"},
      {"measurement": "difference of the relative activities of P-type and S-type α-amylases (maximum)", "setting": "human P-type α-amylase [3]; DOG3 0.33 mM, substrate N3G5-CNP, S-type minus P-type, as fraction", "result": 0.548},
      {"measurement": "inhibition at 500 µM", "setting": "human P-type α-amylase [3]; DOG3 0.50 mM, substrate G5-CNP, α-glucosidase and β-glucosidase as coupled enzymes, read-out: inhibition constant a (to P-type α-amylase)", "result": 61.7, "unit": "%"},
      {"measurement": "inhibition at 330 µM", "setting": "human P-type α-amylase [3]; pH 7, DOG3 0.33 mM, substrate N3G5-CNP 2.0 mM, read-out: inhibition constant a (to P-type α-amylase) = 1 - relative activity", "result": 86.9, "unit": "%"},
      {"measurement": "activity at 330 µM", "setting": "human S-type α-amylase [4]; DOG3 0.33 mM final, substrate N3G5-CNP 2.0 mM final, 37° C., pH 7.0, read-out: relative activity of human S-type α-amylase (without DOG3 = 100%)", "result": 67.9, "unit": "%"},
      {"measurement": "inhibition at 500 µM", "setting": "human S-type α-amylase [4]; DOG3 0.50 mM, substrate G5-CNP, α-glucosidase and β-glucosidase as coupled enzymes, read-out: inhibition constant b (to S-type α-amylase)", "result": 14.1, "unit": "%"},
      {"measurement": "inhibition at 330 µM", "setting": "human S-type α-amylase [4]; pH 7, DOG3 0.33 mM, substrate N3G5-CNP 2.0 mM, read-out: inhibition constant b (to S-type α-amylase) = 1 - relative activity", "result": 32.1, "unit": "%"}
    ]}
  ]
}
